Results published in US20150071974A1, “COMPOUNDS WHICH INHIBIT NEURONAL EXOCYTOSIS” (LUBRIZOL ADVANCED MATERIALS, INC., priority 2012, published 2015).

Tested on: human neuroblastoma cell line
Assay: Release of noradrenaline induced by TPA/Ionomycin in a neuroblastoma cell line, quantified by ELISA
Assay type: cell-based
Details: TPA/ION control = 100.00
Description: Quantification of the Release of Noradrenaline Induced by TPA/Ionomycin in a Neuroblastoma Cell Line by ELISA
The induction of the release of noradrenaline with TPA (12-O-tetradecanoylphorbol-13-acetate)/lonomycin enables direct measurement of neuronal exocytosis. For the study of the inhibitory effect of the compounds of the invention on the release of noradrenaline, cells of a human neuroblastoma cell line were pre-incubated (1×10^6 cells/well) for 60 minutes with the compound of the invention (1 μM, 10 μM, 100 μM, 500 μM or 1 mM compounds), and afterward the release of noradrenaline was induced. The release of the noradrenaline neurotransmitter was induced by an 8 minute pre-treatment with a solution of 12-O-tetradecanoylphorbol-13-acetate (TPA) 100 nM, which mobilized the intracellular vesicles which contained the neurotransmitter; followed by a 5 minute incubation with TPA/Ionomycin (100 nM/10 μM), which induced the release of the neurotransmitter contained in these vesicles. […] For this, absorbance at 405 nm was measured in Thermo Scientific Multiskan Ascent equipment.
The blocking of the SNARE complex by the compounds of the invention lead to an inhibition of neuronal exocytosis and therefore, a decrease in the levels of released noradrenaline (Table 6).

Row | Substance | % RELEASED NORADRENALINE Average (dose 10 μM) [%] | % RELEASED NORADRENALINE Average (dose 100 μM) [%] | % RELEASED NORADRENALINE Average (dose 1000 μM) [%]
1 | Ac-HQEHRKMD-NH2 [Ac-SEQ ID NO: 5-NH2] | 85.68 | 81.50 | 51.45
2 | Ac-QNLEHIMDQ-NH2 [Ac-SEQ ID NO: 62-NH2] | 77.76 | 82.72 | 63.99
3 | Ac-QQLENIMDN-NH2 [Ac-SEQ ID NO: 51-NH2] | 81.13 | 101.40 | 35.37
